Columns and labels:
[1] = system: microtubules of HeLa cells; experiment: Stability of the microtubules in cells, qualitative double-blind evaluation using a microscope; assay type: cell-based, Human; settings: general statement
Protocol: (§1) 6. a step of analysis of the effect of the compound to be tested on the dynamics of the microtubule network. For this, HeLa cells are incubated for 2 h with the compound to be tested, then optionally treated with 10 μM nocodazole for 30 minutes.
Cells grown for two days on glass coverslips, were incubated 3 minutes at 37° C. with or without OPT buffer (Pipes 80 mM, EGTA 1 mM, MgCl 1 mM, Triton X-100 0.5% and glycerol 10% pH 6.8), and then fixed in methanol previously maintained at −20° C. for 10 minutes. The cells are then washed with PBS/0.1% Tween® 20 and incubated for 15 minutes minimum at room temperature with the appropriate primary antibodies (cf. the antibodies from Table III) diluted in a solution of PBS/0.3% BSA/0.02% NaN3. The cells are then washed 3 times with PBS/0.1% Tween® 20. They are incubated for 15 minutes at room temperature with a solution of secondary antibodies (cf. the antibodies from Table IV) and of Hoechst at a final concentration of 1 μg/ml, diluted in PBS/0.3% BSA/0.02% NaN3. […]
HeLa cells are seeded in black-bottomed black 96-well microplates (Greiner 655086) by distributing 90 μl per well of a cell solution containing 40 000 cells/ml, and incubated at 37° C. with 5% CO2. […] The various fluorescence intensities are measured using the FLUOstar OPTIMA reader. […]

[2] = system: microtubules of HeLa cells; experiment: Resistance of microtubules to nocodazole-induced depolymerization; assay type: cell-based, Human; settings: 2 h with compound then 30 minutes nocodazole
Protocol: as §1
FIG. 4 represents the effect of nocodazole on the microtubules of the HeLa cells treated with the Compound 1 of the invention. The HeLa cells are incubated with paclitaxel or without, with the Compound 1 of the invention for 2 h, then exposed for 30 minutes to nocodazole. The amount of tubulin in the cells treated with the Compound 1 of the invention is measured with a microplate reader, then reported as a percentage of the amount of tubulin measured in the wells containing the cells treated with paclitaxel;
In the living cell, microtubules are dynamic structures, which oscillate between assembling and disassembling phases. Various types of tests may be carried out in order to assess the stabilizing effect of the molecules on the microtubule network. Thus, the binding of paclitaxel to the microtubules, or the binding of stabilizing proteins such as STOP proteins (Bosc et al., 2003) may protect the microtubule network from a depolymerization induced by an incubation of the cells at 4° C. […]

786-O cells = experiment: Cell growth test (MTT), 786-O; assay type: cell-based; settings: Homo sapiens, 786-0, MTT test after 48 h, read-out: IC50 (concentration necessary to inhibit 50% of cell growth)
Protocol: (§2) The cell growth tests are carried out in transparent 96-well microplates (Greiner) after having seeded 100 μl/well of a cell solution having 2·10^5 cells/ml to 5·10^5 cells/ml (depending on the cell lines). After incubating for 24 h at 37° C. with 5% CO2, the culture medium is removed and replaced with solutions of the molecule to be tested at various concentrations. The cells are incubated with these molecules for an additional 48 h at 37° C. with 5% CO2. After elimination of the medium, the cells are washed with blank RPMI (Gibco, Invitrogen) then incubated with 3-(4,5-dimethylthiazol-2-yl)-2,5-diphenyltetrazolium bromide or MTT (0.5 mg/ml final concentration) for 4 h at 37° C. with 5% CO2. MTT (Sigma Aldrich) makes it possible to estimate the viability of the cells by measuring the activity of a mitochondrial enzyme. Indeed, in living cells, mitochondrial dehydrogenases are capable of cleaving the tetrazolium ring, thus leading to the formation of formazan crystals that are insoluble in an aqueous medium. These crystals are dissolved with the addition of a solubilizing solution (isopropanol, 10% Triton X100, 0.1 N HCl). After stirring, the absorbance is measured at 570 nm using the FLUOstar OPTIMA microplate reader. […]
(§3) The viability of the cells was evaluated using an MTT test after 48 h of exposure with various concentrations of molecules (from 100 μM to 0.001 μM). […]

MES-SA cells = experiment: Cell growth test (MTT), MES-SA; assay type: cell-based; settings: Homo sapiens, MTT test after 48 h, read-out: IC50 (concentration necessary to inhibit 50% of cell growth)
Protocol: as §2, §3

NCI-H460 cells = experiment: Cell growth test (MTT), NCI-H460; assay type: cell-based; settings: Homo sapiens; NCI-H460, MTT test after 48 h; read-out: IC50 (concentration necessary to inhibit 50% of cell growth)
Protocol: as §2, §3

SMILES	Effect on the stabilization of cell microtubules [1]	Protection of microtubules from nocodazole-induced depolymerization [2]	IC50 (786-O cells) [µM]	IC50 (MES-SA cells) [µM]	IC50 (NCI-H460 cells) [µM]
Cc1c2ccncc2c(C)c2c1[nH]c1ccccc12 [ellipticine]	does not have any effect	–	–	–	–
Cc1c2cc[nH]c(=O)c2c(C)c2c1[nH]c1ccc(OC(=O)c3ccccc3)cc12 [Compound 1, 9-benzoyloxy-5,11-dimethyl-2H,6H-pyrido[4,3-b]carbazol-1-one]	–	prevents, in a dose-dependent manner	55.1	26	6.65
